Measured values reported in paper PMC11233931, “Remodeling tumor‐associated macrophage for anti‐cancer effects by rational design of irreversible inhibition of mitogen‐activated protein kinase‐activated protein kinase 2” (MedComm, 2024).

Columns and labels:
[1] = test system: p-Hsp27; assay: Cellular washout assay, p-Hsp27 by western blot; format: cell-based; details: 1 h pretreatment, then LPS
Experimental: (§1) FIGURE 4 Targeting cellular MK2 signaling with irreversible inhibition by compound 11. (A and B) RT‐PCR analysis of IL‐1β, TNF‐α, and IL‐6 expression in Lipopolysaccharides (LPS)‐stimulated THP‐1 (A) and RAW264.7 (B) Cells, with pre‐treatment of compound 11 for 3 h followed by LPS (3 h) stimulation. (C) The inhibitory effects of compound 11 on TNF‐α and IL‐6 production in LPS‐stimulated RAW264.7 macrophages for 24 h, measured by ELISA. (D and E) Compound 11, alongside CC‐99677 and PF‐3644022, suppressed MK2 pathway activation, validated through western blot analysis post‐LPS stimulation. Cells were preincubated with the specified compounds for 1 h prior to LPS stimulation (100 ng/mL, 30 min). (F) Distinguishes the mode of action between compound 11 and CC‐99677. The complex structure of a small molecule and MK2 (3R2Y) with the same parent nucleus as compound 11 is shown in cyans, and the complex structure of a small molecule and MK2 (3FYJ) with the same parent nucleus as CC‐99677 is shown in orange. (G–I) The effect of indicated inhibitor on Hsp27 phosphorylation following inhibitor washout. Cells were pretreated with indicated compounds for 1 h and then washed to remove free compound and incubated for a further indicated time before activation with LPS. In (A–C), LPS (100 ng/mL) served as the stimulation control, while untreated cells were the baseline control. The data represent as mean ± SD from triplicates, with statistical analysis conducted via one‐way analysis of variance (ANOVA) (^## p < 0.01, ^### p < 0.001 vs. stimulation control; ^***p < 0.001 vs. baseline control).
Furthermore, to validate the irreversible mechanism of action of compound 11 at the cellular level, we performed a cellular washout assay and assessed p‐Hsp27 levels. The established MK2 irreversible inhibitor CC‐99677 served as positive control, while the reversible ATP‐competitive inhibitor PF‐3644022 was used as negative control. […] In contrast, only 1 h after PF‐3644022 washout, p‐Hsp27 level was totally recovered (Figure 4I).
After the treatment outlined in the figure legends, cells were lysed using 1× sodium dodecyl sulfate (SDS) solution. The lysates were then subjected to SDS‐polyacrylamide gel electrophoresis for separation, followed by transferring onto nitrocellulose membranes. The membranes were incubated with primary antibodies specific to phospho‐MK2, phospho‐Hsp27, MK2, Hsp27, GAPDH, and β‐actin (Cell Signaling Technology), followed by horseradish peroxidase‐conjugated anti‐mouse or anti‐rabbit IgG secondary antibodies. Protein bands were detected using an enhanced chemiluminescence detection reagent (Thermo Fisher Scientific).

[2] = test system: p-Hsp27 (Ser82) and p-MK2 (T334) in THP-1 derived macrophages; assay: Western blot of MK2 signaling in LPS-stimulated THP-1 derived macrophages; format: cell-based, human; details: 1 h preincubation, LPS 100 ng/mL 30 min
Experimental: as §1
Next, the efficacy of compound 11 in cellular MK2 signaling inhibition was evaluated by examining both p‐MK2 and p‐Hsp27 at Ser82 levels, the latter being a direct downstream substrate of p‐MK2. […] We try to explore this interesting phenomenon by superimposing the complex crystal structure (3FYJ) that harboring the same skeleton as CC‐99677 (Figure 4F). […] In that way, CC‐99677 binding to MK2 kinase after pre‐incubation with cells and after LPS stimulation may cause the difference in the spatial conformation of MK2 kinase domain, which may make p38 cannot properly bind to MK2, resulting in a decrease in the phosphorylation of MK2.
After the treatment outlined in the figure legends, cells were lysed using 1× sodium dodecyl sulfate (SDS) solution. The lysates were then subjected to SDS‐polyacrylamide gel electrophoresis for separation, followed by transferring onto nitrocellulose membranes. […] Protein bands were detected using an enhanced chemiluminescence detection reagent (Thermo Fisher Scientific).

[3] = target: T1, MK2 (Homo sapiens, UniProt P49137); assay: MK2 kinase inhibition assay (ADP-Glo); format: biochemical; details: for IC50: mean ± SD of two independent tests
Experimental: To assess the impact of various compounds on MK2 kinase activity, we utilized the ADP‐Glo Assay Kit (Promega) following the manufacturer's instructions. Luminescence measurements were taken using a SpectraMax Paradigm reader. The inhibition percentage was calculated using the following formula: ((specific signalDMSO control − specific signal inhibitor)/(specific signalDMSO control)) × 100%. The IC50 values were determined employing dose–response curve fitting via Prism (Graph Pad).

[4] = test system: p38α-MK2 complex; set-up: method as in PMID 29549113; details: cited from earlier work
[5] = test system: MK2; set-up: method as in PMID 12147348, PMID 35691544; details: cited from earlier work
[6] = target: T1, MK2; assay: Kinase kinetic analysis of irreversible inhibition (Mobility Shift Assay, preincubation then 100-fold dilution); format: biochemical; details: preincubation at 100 times the IC50, monitored continuously
From the text: To assess its role as an irreversible MK2 kinase inhibitor, we conducted a kinetic study on compound 11. The well‐known reversible ATP‐competitive MK2 inhibitor, PF‐3644022, served as a negative control. […] The kinase‐inhibitor mixture was subsequently diluted by a factor of 100 with a reaction buffer that included both substrate peptide and ATP. Under these circumstances, the activity of MK2 kinase was continuously monitored by assessing the phosphorylated substrate percentage. […] The enzyme activity curve almost overlapped with the curve of background group, which included only the substrate peptide without inhibitors and MK2 kinase.
In the kinase kinetic analysis to elucidate the irreversible inhibition of MK2 by compound 11, a Mobility Shift Assay was conducted. […] The EZ Reader (Caliper Life Sciences, MA) was then used to assess the kinase activity of the mixture, which was monitored continuously for 1 hour.

T1 sequence (P49137 whole entry): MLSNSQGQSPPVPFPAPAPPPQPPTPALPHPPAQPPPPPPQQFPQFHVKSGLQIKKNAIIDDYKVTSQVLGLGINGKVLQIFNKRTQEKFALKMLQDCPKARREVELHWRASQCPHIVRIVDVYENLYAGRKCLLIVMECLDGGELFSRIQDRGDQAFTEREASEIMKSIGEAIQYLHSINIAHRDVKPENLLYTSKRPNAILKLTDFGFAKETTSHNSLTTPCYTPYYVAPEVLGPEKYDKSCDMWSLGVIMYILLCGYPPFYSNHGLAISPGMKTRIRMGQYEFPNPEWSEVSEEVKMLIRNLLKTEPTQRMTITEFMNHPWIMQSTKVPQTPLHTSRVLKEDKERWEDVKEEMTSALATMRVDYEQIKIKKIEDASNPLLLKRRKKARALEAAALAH

IC50 [3]	Structure (SMILES)	further results
	CCOCc1cnc(Cl)nc1Oc1ccc2c(ccc3sc4c(c32)NC[C@@H](C)NC4=O)n1 [CC-99677, reference compound]	time after inhibitor washout at which p-Hsp27 level recovered [1]: 12 h; effect on MK2 phosphorylation at T334 site [2]: inhibited
113 ± 3.5 nM	C=CC(=O)Nc1cc(-c2cc(-c3cc4c([nH]3)CCNC4=O)ccn2)ccc1N(C)C [compound 13]	
52.1 ± 0.3 nM	C=CC(=O)Nc1cc(-c2cc(-c3cc4c([nH]3)CCNC4=O)ccn2)ccc1C(F)(F)F [compound 9]	
121 ± 26.1 nM	C=CC(=O)Nc1cc(-c2cc(-c3cc4c([nH]3)CCNC4=O)ccn2)cc(N(C)C)c1 [compound 12]	
	Cc1cnc(-c2ccnc(C(C)(C)O)n2)cc1-n1c(C)cc(OCc2ncc(F)cc2F)c(Cl)c1=O [ATI-450]	potency for the p38α-MK2 complex relative to p38α-PRAK or p38α-ATF2 [4]: over 700 fold
	CCC(=O)Nc1cccc(-c2cc(-c3cc4c([nH]3)CCNC4=O)ccn2)c1 [compound 3]	inhibition at 1 µM ([3]; read-out: inhibition of MK2 at 1 μM, 1 μM, inhibitory rate of two independent tests): ~30%
452 ± 45.3 nM	C=CC(=O)Nc1cc(OC)cc(-c2cc(-c3cc4c([nH]3)CCNC4=O)ccn2)c1 [compound 4]	
36.9 ± 20.1 nM	C=CC(=O)Nc1cc(-c2cc(-c3cc4c([nH]3)CCNC4=O)ccn2)ccc1OC [compound 5]	
89.5 ± 15.3 nM	C=CC(=O)Nc1cc(C)cc(-c2cc(-c3cc4c([nH]3)CCNC4=O)ccn2)c1 [compound 6]	
217 ± 4.8 nM	C=CC(=O)Nc1cc(-c2cc(-c3cc4c([nH]3)CCNC4=O)ccn2)cc(C(F)(F)F)c1 [compound 8]	
212 ± 8.3 nM	C=CC(=O)Nc1cc(OC(F)(F)F)cc(-c2cc(-c3cc4c([nH]3)CCNC4=O)ccn2)c1 [compound 10]	
285 ± 97.5 nM	C=CC(=O)Nc1cc(-c2cc(-c3cc4c([nH]3)CCNC4=O)ccn2)ccc1C [compound 7]	
728 nM	C=CC(=O)Nc1cccc(-c2cc(-c3cc4c([nH]3)CCNC4=O)ccn2)c1 [compound 2]	
	Nc1ncnc2c1ncn2[C@@H]1O[C@H](COP(=O)(O)OP(=O)(O)OP(=O)(O)O)[C@@H](O)[C@H]1O [ATP]	ATP binding affinity to MK2 [5]: approximately 30 µM
12.3 ± 1.3 nM	Cc1ccc(-c2ccc3c(ccc4sc5c(c43)NC[C@@H](C)NC5=O)n2)cn1 [PF-3644022, reference compound]	time after inhibitor washout at which p-Hsp27 level recovered [1]: 1 h; effect on MK2 phosphorylation at T334 site [2]: inhibited; MK2 kinase activity after 30 min preincubation with inhibitor and 100-fold dilution [6]: recovered gradually
